Laboratory results published in patent US6855730B2, “3-methylidenyl-2-indolinone modulators of protein kinase” (Sugen, Inc., priority 1998, dated 2005).

molecular target: T1, chimeric receptor containing the EGFR extracellular domain and intracellular HER2 kinase domain (Homo sapiens, UniProt P04626); assay: EGF Receptor-HER2 chimeric receptor assay in whole cells (ELISA); type: cell-based; settings: read-out: HER-2 kinase IC50
T1 construct: fused on or other part: EGFR ectodomain + HER2 intracellular part, ATP-site indolinones: HER2's kinase
Procedure: EGF Receptor-HER2 Chimeric Receptor Assay In Whole Cells.
HER2 kinase activity in whole EGFR-NIH3T3 cells are measured as described below:
• a. […] 05-101 (UBI) (a monoclonal antibody recognizing an EGFR extracellular domain). • c. Anti-phosphotyrosine antibody (anti-Ptyr) (polyclonal) (see, Fendley, et al., supra). • d. Detection antibody: Goat anti-rabbit IgG horseradish peroxidase conjugate, TAGO, Inc., Burlingame, Calif. • e. TBST buffer:
• h. Stock reagents of:
Pre-coat ELISA Plate • 1. […] Coated plates are good for up to 10 days when stored at 4° C. • 2. On day of use, remove coating buffer and replace with 100 μl blocking buffer (5% Carnation Instant Non-Fat Dry Milk in PBS). Incubate the plate, shaking, at room temperature (about 23° C. to 25° C.) for 30 minutes. Just prior to use, remove blocking buffer and wash plate 4 times with TBST buffer.
Seeding Cells • 1. An NIH3T3 cell line overexpressing a chimeric receptor containing the EGFR extracellular domain and intracellular HER2 kinase domain can be used for this assay. • 2. Choose dishes having 80-90% confluence for the experiment. Trypsinize cells and stop reaction by adding 10% fetal bovine serum. Suspend cells in DMEM medium (10% CS DMEM medium) and centrifuge once at 1500 rpm, at room temperature for 5 minutes. • 3. Resuspend cells in seeding medium (DMEM, 0.5% bovine serum), and count the cells using trypan blue. Viability above 90% is acceptable. Seed cells in DMEM medium (0.5% bovine serum) at a density of 10,000 cells per well, 100 μl per well, in a 96 well microtiter plate. Incubate seeded cells in 5% CO2. at 37° C. for about 40 hours.
Assay Procedures • 1. Check seeded cells for contamination using an inverted microscope. Dilute drug stock (10 mg/ml in DMSO) 1:10 in DMEM medium, then transfer 5 μl to a […] well for a final drug dilution of 1:200 and a final DMSO concentration of 1%. Control wells receive DMSO alone. Incubate in 5% CO2 at 37° C. for two hours. • 2. Prepare EGF ligand: dilute stock EGF in DMEM so that upon transfer of 10 μl dilute EGF (1:12 dilution), 100 nM final concentration is attained. • 3. Prepare fresh HNTG* sufficient for 100 μl per well, and place on ice.
• 4. After 120 minutes incubation with drug, add prepared […] ligand to cells, 10 μl per well, to a final concentration of 100 nM. Control wells receive DMEM alone. Incubate with shaking, at room temperature, for 5 minutes. • 5. Remove drug, EGF, and DMEM. Wash cells twice with PBS. Transfer HNTG* to cells, 100 μl per well. Place on ice for 5 minutes. Meanwhile, remove blocking buffer from other ELISA plate and wash with TBST as described above. • 6. With a pipette tip securely fitted to a micropipettor, scrape cells from plate and homogenize cell material by repeatedly aspirating and dispensing the HNTG* lysis buffer. Transfer lysate to a coated, blocked, and washed ELISA plate. Incubate shaking at room temperature for one hour. • 7. Remove lysate and wash 4 times with TBST. Transfer freshly diluted anti-Ptyr antibody to ELISA plate at 100 μl per well. Incubate shaking at room temperature for 30 minutes in the presence of the anti-Ptyr antiserum (1:3000 dilution in TBST). • 8. Remove the anti-Ptyr antibody and wash 4 times with TBST. Transfer the freshly diluted TAGO anti-rabbit IgG antibody to the ELISA plate at 100 μl per well. Incubate shaking at room temperature for 30 minutes (anti-rabbit IgG antibody: 1:3000 dilution in TBST). • 9. Remove TAGO detection antibody and wash 4 times with TBST. Transfer freshly prepared ABTS/H2O2 solution to ELISA plate, 100 μl per well. Incubate shaking at room temperature for 20 minutes. (ABTS/H2O2 solution: 1.0 μl 30% H2O2 in 10 ml ABTS stock). • 10. Stop reaction by adding 50 μl 5N H2SO4 (optional), and determine O.D. at 410 nm. • 11. The maximal phosphotyrosine signal is determined by subtracting the value of the negative controls from the positive controls. […]

T1 sequence (P04626 720-1255 limits assumed, change not shown): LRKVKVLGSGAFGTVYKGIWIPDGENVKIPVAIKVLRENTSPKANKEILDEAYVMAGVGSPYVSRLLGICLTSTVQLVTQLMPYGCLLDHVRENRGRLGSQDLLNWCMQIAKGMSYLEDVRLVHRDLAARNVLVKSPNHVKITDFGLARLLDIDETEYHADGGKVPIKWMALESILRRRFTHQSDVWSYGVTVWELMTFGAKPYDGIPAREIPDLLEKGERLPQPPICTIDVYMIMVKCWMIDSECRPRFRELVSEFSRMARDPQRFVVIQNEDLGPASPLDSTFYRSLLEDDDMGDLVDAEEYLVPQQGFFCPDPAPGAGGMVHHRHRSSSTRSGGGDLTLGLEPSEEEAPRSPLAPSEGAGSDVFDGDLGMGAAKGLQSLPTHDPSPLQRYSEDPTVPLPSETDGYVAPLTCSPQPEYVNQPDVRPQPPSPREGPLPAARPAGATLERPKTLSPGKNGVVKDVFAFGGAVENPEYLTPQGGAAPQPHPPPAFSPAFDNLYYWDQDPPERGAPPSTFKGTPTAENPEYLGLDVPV

| Compound | IC50 [µM] |
| --- | --- |
| COc1ccc(C=C2C(=O)Nc3cc(NC(C)=O)ccc32)cc1-c1cccc(NC(C)=O)c1 (mixture of isomers) [Example 63, N-[3-(3′-Acetylamino-6-methoxybiphenyl-3-ylmethylene)-2-oxo-2,3-dihydro-1H-indol-6-yl]-acetamide] | > 100 |
| CC1(C)CCc2cc(C=C3C(=O)Nc4ccc(Br)cc43)ccc2O1 (racemic) [Example 34, 5-Bromo-3-(2,2-dimethylchroman-6-ylmethylene)-1,3-dihydroindol-2-one] | > 100 |
| CNS(=O)(=O)c1ccc2c(c1)C(=Cc1[nH]c3ccccc3c1C)C(=O)N2 (racemic) [Example 154, 3-(3-Methyl-1H-indol-2-ylmethylene)-2-oxo-2,3-dihydro-1H-indole-5-sulfonic acid methylamide] | > 100 |
| COc1c(C(C)C)cc(/C=C2/C(=O)Nc3cc(NC(C)=O)ccc32)cc1C(C)C [Example 3, N-[3-(3,5-Diisopropyl-4-methoxybenzylidene)-2-oxo-2,3-dihydro-1H-indol-6-yl]-acetamide] | 6.4 |
| COc1c(C(C)C)cc(/C=C2/C(=O)Nc3cc(O)ccc32)cc1C(C)C [Example 4, 3-(3,5-Diisopropyl-4-methoxybenzylidene)-6-hydroxy-1,3-dihydroindol-2-one] | 5.8 |
| COc1c(C(C)C)cc(/C=C2/C(=O)Nc3ccc(C(C)=O)cc32)cc1C(C)C [Example 5, 5-Acetyl-3-(3,5-diisopropyl-4-methoxybenzylidene)-1,3dihydroindol-2-one] | 6.5 |
| COC(=O)c1ccc2c(c1)/C(=C\c1cc(C(C)C)c(OC)c(C(C)C)c1)C(=O)N2 [Example 6, 3-(3,5-Diisopropyl-4-methoxybenzylidene)-2-oxo-2,3-dihydro-1H-indole-5-carboxylic acid methyl ester] | 15.3 |
| COc1ccc(/C=C2/C(=O)Nc3ccccc32)cc1C(C)C [Example 7, 3-(3-Isopropyl-4-methoxybenzylidene)-1,3-dihydroindol-2-one] | > 100 |
| COc1cc(C)c(C=C2C(=O)Nc3ccccc32)cc1C(C)C [Example 8, 3-(5-Isopropyl-4-methoxy-2-methylbenzylidene)-1,3-dihydroindol-2-one] | 8.36 |
| COc1cc(C)c(C=C2C(=O)Nc3ccc(Cl)cc32)cc1C(C)C [Example 9, 5-Chloro-3-(5-isopropyl-4-methoxy-2-methylbenzylidene)-1,3-dihydroindol-2-one] | > 100 |
| COc1ccc(/C=C2/C(=O)Nc3ccccc32)cc1C1CCCC1 [Example 10, 3-(3-Cyclopentyl-4-methoxybenzylidene)-1,3-dihydroindol-2-one] | 45.8 |
| COc1ccc(/C=C2/C(=O)Nc3ccc(F)cc32)cc1C1CCCC1 [Example 11, 3-(3-Cyclopentyl-4-methoxybenzylidene)-5-fluoro-1,3-dihydroindol-2-one] | 57.3 |
| COc1ccc(/C=C2/C(=O)Nc3ccccc32)cc1C1CCCCC1 [Example 12, 3-(3-Cyclohexyl-4-methoxybenzylidene)-1,3-dihydroindol-2-one] | > 100 |
| COc1ccc(/C=C2/C(=O)Nc3ccc(Br)cc32)cc1-c1ccccc1 [Example 13, 5-Bromo-3-(6-methoxybiphenyl-3-ylmethylene)-1,3-dihydroindol-2-one] | > 100 |
| O=C1Nc2ccc(Cl)cc2/C1=C\c1ccc2c(c1)CCO2 [Example 14, 5-Chloro-3-(2,3-dihydro-benzofuran-5-ylmethylene)-1,3-dihydroindol-2-one] | 22.7 |
| CC1(C)CCc2cc(/C=C3/C(=O)Nc4ccc(Cl)cc43)ccc2O1 [Example 15, 5-Chloro-3-(2,2-dimethyl-chroman-6-ylmethylene)-1,3-dihydroindol-2-one] | 19 |
| CC(=O)Nc1ccc2c(c1)NC(=O)/C2=C/c1ccc(OCCN2CCOCC2)c(C2CCCCC2)c1 [Example 16, N-{3-[3-Cyclohexyl-4-(2-morpholin-4-ylethoxy)-benzylidene]-2-oxo-2,3-dihydro-1H-indol-6-yl}-acetamide] | 9.9 |
